Experimental data reported in patent publication US20230116602A1, “MCL1 INHIBITORS AND USES THEREOF” (California Institute of Technology, priority 2019, published 2023).
pIC50, pKd: −log10 of the molar value.

Tests used:
[1] = tested on: drug-sensitive cell lines of Table 3; assay: Cell line growth retardation assay, sensitive cohort; assay type: cell-based, Human; settings: for pIC50: Homo sapiens, 144 h, arithmetic mean of IC50s over the sensitive cohort of Table 3, 6 days growth, read-out: AvgSen IC50; for Fold Diff: average IC50 of resistant cohort divided by average IC50 of sensitive cohort
Method: (§1) Cells were seeded at densities of 1,000-5,000 cells per well in 48-well tissue culture plates. After a 24 h rest period, cells were treated with compound at 10 μM, 1 μM, […], 0.08 μM, 0.016 μM, and 0.0032 μM. A group of cells were treated with the vehicle in which the compound was prepared and served as a control. Prior to treatment, cells were counted and this count was used as a baseline for the calculation of growth inhibition. The cells were grown in the presence of compounds for 6 days and were counted on day 6. All cell counting was performed using a Synentec Cellavista plate imager. Growth inhibition was calculated as a ratio of cell population doublings in the presence of compound versus the absence of compound. […] IC50 values for each compound were calculated by fitting curves to data points from each dose-response assay using the Proc NLIN function in SAS for Windows version 9.2 (SAS Institute, Inc.).
(§2) Human cancer cell lines were grouped as “sensitive” or “resistant” to MCL1 inhibition based on whether their growth was retarded by AMG-176 (i.e., (1′S,11R,12S,14E,16S,16aR,18aR)-6′-Chloro-3′,4′,12,13,16,16a,17,18,18a,19-decahydro-16-methoxy-11,12-dimethyl-,Spiro[5,7-etheno-1H,11H-cyclobut[i][1,4]oxazepino[3,4-f][1,2,7]thiadiazacyclohexadecine-2(3H),1′(2′H)-naphthalen]-8(9H)-one 10,10-dioxide) or MIK665 (i.e., (R)-2-((5-(3-chloro-2-methyl-4-(2-(4-methylpiperazin-1-yl)ethoxy)phenyl)-6-(4-fluorophenyl)thieno[2,3-d]pyrimidin-4-yl)oxy)-3-(2-((2-(2-methoxyphenyl)pyrimidin-4-yl)methoxy)phenyl)propanoic acid) (data not shown; see Table 3). These sensitive and resistant cohorts were interrogated for response to each compound, and IC50S were calculated for each cell line using the same technique described above. Average IC50S for the sensitive (“AvgSen IC50”) and resistant (“AvgRes IC50”) cohorts were calculated as arithmetic means of the group, and fold differences (“Fold Diff”) between the resistant and sensitive cohorts were calculated by diving the average IC50 for the resistant cohort by the average IC50 for the sensitive cohort. “A” represents an IC50 of 1 μM or less, “B” represents an IC50 of greater than 1 μM to 5 μM, “C” represents an IC50 of greater than 5 μM, “+” represents a fold difference of 10 or more, and “−” represents a fold difference less than 10.

[2] = target: MCL1 (Homo sapiens, UniProt Q07820); assay: MCL1 affinity assay (competition binding, qPCR readout); settings: recombinant MCL1, 11-point 3-fold dilution series
Method: Recombinant MCL1, BCL2 and BCXL proteins were prepared in either an E. coli host derived from the BL21 strain or in HEK-293 cells. The recombinant proteins were subsequently tagged with DNA for qPCR detection. Streptavidin-coated magnetic beads were treated for 30 minutes at room temperature with the respective biotinylated peptide ligands for each recombinant protein to generate affinity resins for the assays. The liganded beads were blocked with excess biotin and washed with blocking buffer (SeaBlock (Pierce), 1% BSA, 0.05% Tween 20, 1 mM DTT) to remove unbound ligand and to reduce nonspecific binding. Binding reactions were assembled by combining recombinant protein, liganded affinity beads, and test compounds in 1× binding buffer (20% SeaBlock, 0.17×PBS, 0.05% Tween 20, 6 mM DTT). Test compounds were prepared as 111X stocks in 100% DMSO. The compounds were then diluted directly into the assays such that the final concentration of DMSO was 0.9%. The assay plates were incubated at room temperature with shaking for 1 hour and the affinity beads were washed with wash buffer (1×PBS, 0.05% Tween 20). The beads were then re-suspended in elution buffer (1×PBS, 0.05% Tween 20, 0.5 μM non-biotinylated affinity ligand) and incubated at room temperature with shaking for 30 minutes. The recombinant protein concentration in the eluates was measured by qPCR. Kds were determined using an 11-point 3-fold compound dilution series with three DMSO control points.

[3] = tested on: drug-resistant cell lines of Table 3; assay: Cell line growth retardation assay, resistant cohort; assay type: cell-based, Human; settings: Homo sapiens, 144 h; arithmetic mean of IC50s over the resistant cohort of Table 3, 6 days growth; read-out: AvgRes IC50
Method: as §1, §2

Chain of MCL1 (Q07820 whole entry): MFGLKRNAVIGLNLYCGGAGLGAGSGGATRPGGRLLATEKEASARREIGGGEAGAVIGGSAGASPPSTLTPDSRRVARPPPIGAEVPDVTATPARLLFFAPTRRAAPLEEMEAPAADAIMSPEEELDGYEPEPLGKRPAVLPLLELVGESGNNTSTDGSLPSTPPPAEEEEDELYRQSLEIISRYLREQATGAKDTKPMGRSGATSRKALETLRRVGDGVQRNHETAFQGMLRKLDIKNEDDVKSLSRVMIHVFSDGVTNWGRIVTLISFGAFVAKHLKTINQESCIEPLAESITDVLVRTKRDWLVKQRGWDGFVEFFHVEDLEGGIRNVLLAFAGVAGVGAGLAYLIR

Row | SMILES | pKd [2] | pIC50 [1] | Fold Diff [1] | pIC50 [3]
1 | COc1ccccc1-c1nccc(COc2ccccc2C[C@@H](Oc2nsc3cnc(-c4cnn(CC5CCC5)c4)c(-c4ccc(OCCN5CCN(C)CC5)c(Cl)c4C)c23)C(=O)O)n1 (atropisomer, axis not shown) [Compound 90] | 6.30 to 7.00 | 5.30 to 6.00 | − (“−” represents a fold difference less than 10) | < 5.30
2 | COc1ccccc1-c1nccc(COc2ccccc2C[C@@H](Oc2nsc3cnc(C4CCC4)c(-c4ccc(OC)c(Cl)c4C)c23)C(=O)OCc2oc(=O)oc2C)n1 (atropisomer, axis not shown) [Compound 106] | 6.30 to 7.00 | 5.30 to 6.00 | − (“−” represents a fold difference less than 10) | < 5.30
3 | Cc1c(-c2c(C3CCC3)ncc3snc(O[C@H](Cc4ccccc4OCc4ccnc(C5CC5)n4)C(=O)O)c23)ccc(OCCN2CCN(C)CC2)c1Cl (atropisomer, axis not shown) [Compound 109] | 6.30 to 7.00 | 5.30 to 6.00 | − (“−” represents a fold difference less than 10) | < 5.30
4 | Cc1c(-c2c(C3CCC3)ncc3snc(O[C@H](Cc4ccccc4OCc4ccnc(C5CCC(F)(F)CC5)n4)C(=O)O)c23)ccc(OCCN2CCN(C)CC2)c1Cl (atropisomer, axis not shown) [Compound 110] | ≥ 7.00 | ≥ 6.00 | + (“+” represents a fold difference of 10 or more) | < 5.30
5 | Cc1c(-c2c(C3CCC3)ncc3snc(O[C@H](Cc4ccccc4OCc4ccnc(C5CCOCC5)n4)C(=O)O)c23)ccc(OCCN2CCN(C)CC2)c1Cl (atropisomer, axis not shown) [Compound 111] | ≥ 7.00 | ≥ 6.00 | + (“+” represents a fold difference of 10 or more) | < 5.30
6 | Cc1c(-c2c(C3CCC3)ncc3snc(O[C@H](Cc4ccccc4OCc4ccnc(-c5cccc(N6CCOCC6)c5)n4)C(=O)O)c23)ccc(OCCN2CCN(C)CC2)c1Cl (atropisomer, axis not shown) [Compound 112] | ≥ 7.00 | ≥ 6.00 | + (“+” represents a fold difference of 10 or more) | < 5.30
7 | COc1cccc(Oc2ccc(-c3nccc(COc4ccccc4C[C@@H](Oc4nsc5cnc(C6CCC6)c(-c6ccc(OCCN7CCN(C)CC7)c(Cl)c6C)c45)C(=O)O)n3)cn2)c1 (atropisomer, axis not shown) [Compound 114] | 6.30 to 7.00 | 5.30 to 6.00 | − (“−” represents a fold difference less than 10) | < 5.30
8 | Cc1c(-c2c(C3CCC3)ncc3snc(O[C@H](Cc4ccccc4OCc4ccnc(-c5cccc(S(C)(=O)=O)c5)n4)C(=O)O)c23)ccc(OCCN2CCN(C)CC2)c1Cl (atropisomer, axis not shown) [Compound 118] | ≥ 7.00 | 5.30 to 6.00 | − (“−” represents a fold difference less than 10) | < 5.30
9 | COc1cccc(-c2ncc3snc(O[C@H](Cc4ccccc4OCc4ccnc(OCC(F)F)n4)C(=O)O)c3c2-c2ccc(OCCN3CCN(C)CC3)c(Cl)c2C)c1 [Compound 58] | ≥ 7.00 | ≥ 6.00 | + (“+” represents a fold difference of 10 or more) | < 5.30

The next lines start with results.

Row | pKd [2] | SMILES | pIC50 [1] | Fold Diff [1] | pIC50 [3]
10 | < 5.82 | Cc1c(-c2c(N3CC4(COC4)C3)ncc3snc(O[C@H](Cc4ccccc4OCc4ccnn4CC(F)(F)F)C(=O)O)c23)ccc(OCCN2CCN(C)CC2)c1Cl (atropisomer, axis not shown) [Compound 91] | < 5.30 | − (“−” represents a fold difference less than 10) | < 5.30
11 | 6.30 to 7.00 | COc1ccccc1C[C@@H](Oc1nsc2cnc(-c3cccc(F)c3)c(-c3ccc(OCCN4CCN(C)CC4)c(Cl)c3C)c12)C(=O)O (atropisomer, axis not shown) [Compound 93] | 5.30 to 6.00 | − (“−” represents a fold difference less than 10) | < 5.30
12 | ≥ 7.00 | COc1ccccc1-c1nccc(COc2ccccc2C[C@@H](Oc2nsc3cnc(-c4cccc(F)c4)c(-c4ccc(OCCC5CCN(C)CC5)c(Cl)c4C)c23)C(=O)O)n1 (atropisomer, axis not shown) [Compound 102] | 5.30 to 6.00 | − (“−” represents a fold difference less than 10) | < 5.30
13 | 6.30 to 7.00 | Cc1c(-c2c(C3CCC3)ncc3snc(O[C@H](Cc4ccccc4OCc4ccnc(C5CCC5)n4)C(=O)O)c23)ccc(OCCN2CCN(C)CC2)c1Cl (atropisomer, axis not shown) [Compound 104] | 5.30 to 6.00 | − (“−” represents a fold difference less than 10) | < 5.30
14 | ≥ 7.00 | COc1ccccc1-c1nccc(COc2ccccc2C[C@@H](Oc2nsc3cnc(C4CCC4)c(-c4ccc(OC)c(Cl)c4C)c23)C(=O)O)n1 (atropisomer, axis not shown) [Compound 107] | < 5.30 | − (“−” represents a fold difference less than 10) | < 5.30
15 | ≥ 7.00 | COc1ccccc1-c1nccc(COc2ccccc2C[C@@H](Oc2nsc3cnc(C4CCC4)c(-c4ccc(OCCN5CCOCC5)c(Cl)c4C)c23)C(=O)O)n1 (atropisomer, axis not shown) [Compound 108] | 5.30 to 6.00 | − (“−” represents a fold difference less than 10) | < 5.30
16 | < 5.82 | Cc1c(-c2c(C3CCC3)ncc3snc(O[C@H](Cc4ccccc4OCc4ccnc(-c5ccc(OCc6ccccc6)nc5)n4)C(=O)O)c23)ccc(OCCN2CCN(C)CC2)c1Cl (atropisomer, axis not shown) [Compound 113] | < 5.30 | − (“−” represents a fold difference less than 10) | < 5.30
17 | 6.30 to 7.00 | Cc1cc(-c2nccc(COc3ccccc3C[C@@H](Oc3nsc4cnc(C5CCC5)c(-c5ccc(OCCN6CCN(C)CC6)c(Cl)c5C)c34)C(=O)O)n2)ccc1S(=O)(=O)N1CCCC1 (atropisomer, axis not shown) [Compound 115] | 5.30 to 6.00 | − (“−” represents a fold difference less than 10) | < 5.30
18 | ≥ 7.00 | Cc1cc(C#N)ccc1-c1nccc(COc2ccccc2C[C@@H](Oc2nsc3cnc(C4CCC4)c(-c4ccc(OCCN5CCN(C)CC5)c(Cl)c4C)c23)C(=O)O)n1 (atropisomer, axis not shown) [Compound 116] | ≥ 6.00 | + (“+” represents a fold difference of 10 or more) | < 5.30
19 | 6.30 to 7.00 | Cc1c(-c2c(C3CCC3)ncc3snc(O[C@H](Cc4ccccc4OCc4ccnc(-c5cccc(OC(F)(F)F)c5)n4)C(=O)O)c23)ccc(OCCN2CCN(C)CC2)c1Cl (atropisomer, axis not shown) [Compound 117] | 5.30 to 6.00 | − (“−” represents a fold difference less than 10) | < 5.30
20 | ≥ 7.00 | CC(=O)N1CCN(c2ccc(-c3nccc(COc4ccccc4C[C@@H](Oc4nsc5cnc(C6CCC6)c(-c6ccc(OCCN7CCN(C)CC7)c(Cl)c6C)c45)C(=O)O)n3)cc2)CC1 (atropisomer, axis not shown) [Compound 119] | ≥ 6.00 | + (“+” represents a fold difference of 10 or more) | < 5.30
